Reference: patent publication US7612211B2, “Benzimidazole TRPV1 inhibitors” (Janssen Pharmaceutica N.V., priority 2006, dated 2009)

Biological target: T1, hTRPV1 (Homo sapiens, UniProt Q8NER1)
T1 construct: expressed in transfected cells; host or cells: HEK293
Test: Human TRPV1 (hTRPV1) functional assay, FLIPR intracellular Ca2+, capsaicin challenge
Assay type: cell-based
Conditions: HEK293 cells expressing hTRPV1, capsaicin 0.030 μM challenge; for IC50: derived from a variety of test concentrations, read-out: IC50 value (symbol c); for inhibition at 0.2 µM: test concentration of 0.2 μm, read-out: percent inhibition (symbol b)
Method: The functional activity of the test compounds was determined by measuring changes in intracellular calcium concentration using a Ca^++-sensitive fluorescent dye and FLIPR™ technology. Increases in Ca^++ concentration were readily detected upon challenge with capsaicin.
HEK293 cells expressing hTRPV1 were grown on poly-D-lysine coated 384 well black-walled plates (BD 354663) and 1 day later loaded with Calcium 3 Dye for 35 min at 37° C., 5% CO2 and then for 25 min at room temperature, and subsequently tested for agonist-induced increases in intracellular Ca^2+ levels using FLIPR™ technology. Cells were challenged with test compounds (at varying concentrations) and intracellular Ca^2+ was measured for 5 min prior to the addition of capsaicin to all wells to achieve a final concentration of 0.030 μM eliciting ˜80% maximal response.
EC50 or IC50 values were determined from concentration-response studies, which were generated using the average of quadruplicate wells for each data point. The symbol “a” represents percent inhibition obtained at a test concentration of 0.5 μm; the symbol “b” represents percent inhibition obtained at a test concentration of 0.2 μm; the symbol “c” represents an IC50 value (nM) derived from a variety of test concentrations. The term “NA” means that the result is not applicable for a particular compound.

T1 sequence (Q8NER1 whole entry): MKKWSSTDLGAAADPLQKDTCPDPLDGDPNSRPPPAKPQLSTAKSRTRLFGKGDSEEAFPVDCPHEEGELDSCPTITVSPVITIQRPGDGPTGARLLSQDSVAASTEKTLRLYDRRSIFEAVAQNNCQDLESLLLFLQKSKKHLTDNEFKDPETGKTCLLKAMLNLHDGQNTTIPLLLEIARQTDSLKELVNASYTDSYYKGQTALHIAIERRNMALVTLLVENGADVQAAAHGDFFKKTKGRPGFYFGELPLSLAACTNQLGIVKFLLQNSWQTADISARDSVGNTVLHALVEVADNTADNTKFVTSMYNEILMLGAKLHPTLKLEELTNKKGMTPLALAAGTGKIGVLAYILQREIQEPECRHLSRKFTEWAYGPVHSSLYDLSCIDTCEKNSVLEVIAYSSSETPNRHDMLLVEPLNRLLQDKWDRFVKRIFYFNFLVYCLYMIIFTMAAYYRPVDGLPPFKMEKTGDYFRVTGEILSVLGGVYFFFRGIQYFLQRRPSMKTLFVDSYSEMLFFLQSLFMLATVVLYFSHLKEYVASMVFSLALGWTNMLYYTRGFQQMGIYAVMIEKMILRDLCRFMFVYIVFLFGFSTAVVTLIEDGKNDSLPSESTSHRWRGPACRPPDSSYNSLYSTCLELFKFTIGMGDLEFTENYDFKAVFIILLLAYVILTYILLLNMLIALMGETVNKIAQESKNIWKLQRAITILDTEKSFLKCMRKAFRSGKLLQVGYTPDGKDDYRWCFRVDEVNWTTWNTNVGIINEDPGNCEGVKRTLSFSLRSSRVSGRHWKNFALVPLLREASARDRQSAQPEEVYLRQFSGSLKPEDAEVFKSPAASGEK

An IC50 of 0.0049 µM and an inhibition at 0.2 µM of 98% were found for `NS(=O)(=O)c1ccccc1-c1ccc2[nH]c(CSc3ccc(C(F)(F)F)cc3)nc2c1` [Cpd 41, 2-[2-(4-trifluoromethyl-phenylsulfanylmethyl)-1H-benzoimidazol-5-yl]-benzenesulfonamide] in this work.
An IC50 of 0.075 µM and an inhibition at 0.2 µM of 93% were found for `NS(=O)(=O)c1ccccc1-c1ccc2[nH]c(CSc3ccc(Cl)cc3)nc2c1` [Cpd 42, 2-[2-(4-chloro-phenylsulfanylmethyl)-1H-benzoimidazol-5-yl]-benzenesulfonamide] in this work.
An IC50 of 0.123 µM and an inhibition at 0.2 µM of 87% were found for `NS(=O)(=O)c1ccccc1-c1ccc2[nH]c(CSc3ccc(OC(F)(F)F)cc3)nc2c1` [Cpd 43, 2-[2-(4-trifluoromethoxy-phenylsulfanylmethyl)-1H-benzoimidazol-5-yl]-benzenesulfonamide] in this work.
An inhibition at 0.2 µM of 12% was found for `NS(=O)(=O)c1ccccc1-c1ccc2[nH]c(CS(=O)(=O)c3ccc(C(F)(F)F)cc3)nc2c1` [Cpd 44, 2-[2-(4-trifluoromethyl-benzenesulfonylmethyl)-1H-benzoimidazol-5-yl]-benzenesulfonamide] in this work.
An inhibition at 0.2 µM of 2% was found for `NS(=O)(=O)c1ccccc1-c1ccc2[nH]c(CS(=O)(=O)c3ccc(Cl)cc3)nc2c1` [Cpd 45, 2-[2-(4-chloro-benzenesulfonylmethyl)-1H-benzoimidazol-5-yl]-benzenesulfonamide] in this work.
An inhibition at 0.2 µM of 5% was found for `NS(=O)(=O)c1ccccc1-c1ccc2[nH]c(CS(=O)(=O)c3ccc(OC(F)(F)F)cc3)nc2c1` [Cpd 46, 2-[2-(4-trifluoromethoxy-benzenesulfonylmethyl)-1H-benzoimidazol-5-yl]-benzenesulfonamide] in this work.
An inhibition at 0.2 µM of 46% was found for `NS(=O)(=O)c1ccccc1-c1ccc2[nH]c(CNc3ccc(C(F)(F)F)cc3)nc2c1` [Cpd 47, 2-{2-[(4-trifluoromethyl-phenylamino)-methyl]-1H-benzoimidazol-5-yl}-benzenesulfonamide] in this work.
An inhibition at 0.2 µM of 41% was found for `NS(=O)(=O)c1ccccc1-c1ccc2[nH]c(CNc3ccc(OC(F)(F)F)cc3)nc2c1` [Cpd 48, 2-{2-[(4-trifluoromethoxy-phenylamino)-methyl]-1H-benzoimidazol-5-yl}-benzenesulfonamide] in this work.
An IC50 of 0.106 µM and an inhibition at 0.2 µM of 89% were found for `CC(=O)c1ccccc1-c1ccc2[nH]c(COc3ccc(C(F)(F)F)cc3)nc2c1` [Cpd 49, 1-{2-[2-(4-trifluoromethyl-phenoxymethyl)-1H-benzoimidazol-5-yl]-phenyl}-ethanone] in this work.
An IC50 of 0.091 µM and an inhibition at 0.2 µM of 81% were found for `CC(C)(O)c1ccccc1-c1ccc2[nH]c(COc3ccccc3)nc2c1` [Cpd 50, 2-[2-(2-phenoxymethyl-1H-benzoimidazol-5-yl)-phenyl]-propan-2-ol] in this work.
An IC50 of 0.0078 µM and an inhibition at 0.2 µM of 100% were found for `CNS(=O)(=O)c1ccccc1-c1ccc2[nH]c(COc3ccc(C(C)C)cc3)nc2c1` [Cpd 51, 2-[2-(4-isopropyl-phenoxymethyl)-1H-benzoimidazol-5-yl]-N-methyl-benzenesulfonamide] in this work.
An IC50 of 0.035 µM and an inhibition at 0.2 µM of 99% were found for `CNS(=O)(=O)c1ccccc1-c1ccc2[nH]c(COc3cccc(C(F)(F)F)c3)nc2c1` [Cpd 52, N-methyl-2-[2-(3-trifluoromethyl-phenoxymethyl)-1H-benzoimidazol-5-yl]-benzenesulfonamide] in this work.
An inhibition at 0.2 µM of 17% was found for `CS(=O)(=O)c1ccccc1-c1ccc2[nH]c(COc3ccccc3)nc2c1` [Cpd 53, 5-(2-methanesulfonyl-phenyl)-2-phenoxymethyl-1H-benzoimidazole] in this work.
An inhibition at 0.2 µM of 4% was found for `CS(=O)(=O)c1ccccc1-c1ccc2[nH]c(COc3ccccc3F)nc2c1` [Cpd 54, 2-(2-fluoro-phenoxymethyl)-5-(2-methanesulfonyl-phenyl)-1H-benzoimidazole] in this work.
An inhibition at 0.2 µM of 20% was found for `CS(=O)(=O)c1ccccc1-c1ccc2[nH]c(COc3cccc(F)c3)nc2c1` [Cpd 55, 2-(3-fluoro-phenoxymethyl)-5-(2-methanesulfonyl-phenyl)-1H-benzoimidazole] in this work.
An inhibition at 0.2 µM of 31% was found for `CS(=O)(=O)c1ccccc1-c1ccc2[nH]c(COc3ccc(F)cc3)nc2c1` [Cpd 56, 2-(4-fluoro-phenoxymethyl)-5-(2-methanesulfonyl-phenyl)-1H-benzoimidazole] in this work.
An inhibition at 0.2 µM of 14% was found for `CS(=O)(=O)c1ccccc1-c1ccc2[nH]c(COc3ccccc3Cl)nc2c1` [Cpd 57, 2-(2-chloro-phenoxymethyl)-5-(2-methanesulfonyl-phenyl)-1H-benzoimidazole] in this work.
An inhibition at 0.2 µM of 22% was found for `CS(=O)(=O)c1ccccc1-c1ccc2[nH]c(COc3cccc(Cl)c3)nc2c1` [Cpd 58, 2-(3-chloro-phenoxymethyl)-5-(2-methanesulfonyl-phenyl)-1H-benzoimidazole] in this work.
An IC50 of 0.018 µM and an inhibition at 0.2 µM of 87% were found for `CS(=O)(=O)c1ccccc1-c1ccc2[nH]c(COc3ccc(Cl)cc3)nc2c1` [Cpd 59, 2-(4-chloro-phenoxymethyl)-5-(2-methanesulfonyl-phenyl)-1H-benzoimidazole] in this work.
An inhibition at 0.2 µM of 49% was found for `CS(=O)(=O)c1ccccc1-c1ccc2[nH]c(COc3cccc(Br)c3)nc2c1` [Cpd 60, 2-(3-bromo-phenoxymethyl)-5-(2-methanesulfonyl-phenyl)-1H-benzoimidazole] in this work.
An IC50 of 0.066 µM and an inhibition at 0.2 µM of 77% were found for `CS(=O)(=O)c1ccccc1-c1ccc2[nH]c(COc3ccc(Br)cc3)nc2c1` [Cpd 61, 2-(4-bromo-phenoxymethyl)-5-(2-methanesulfonyl-phenyl)-1H-benzoimidazole] in this work.
An inhibition at 0.2 µM of 24% was found for `CS(=O)(=O)c1ccccc1-c1ccc2[nH]c(COc3ccc(F)cc3F)nc2c1` [Cpd 62, 2-(2,4-difluoro-phenoxymethyl)-5-(2-methanesulfonyl-phenyl)-1H-benzoimidazole] in this work.
An inhibition at 0.2 µM of 37% was found for `CS(=O)(=O)c1ccccc1-c1ccc2[nH]c(COc3ccc(F)c(F)c3)nc2c1` [Cpd 63, 2-(3,4-difluoro-phenoxymethyl)-5-(2-methanesulfonyl-phenyl)-1H-benzoimidazole] in this work.
An inhibition at 0.2 µM of 58% was found for `CS(=O)(=O)c1ccccc1-c1ccc2[nH]c(COc3ccc(Cl)cc3Cl)nc2c1` [Cpd 64, 2-(2,4-dichloro-phenoxymethyl)-5-(2-methanesulfonyl-phenyl)-1H-benzoimidazole] in this work.
An IC50 of 0.058 µM and an inhibition at 0.2 µM of 91% were found for `CS(=O)(=O)c1ccccc1-c1ccc2[nH]c(COc3ccc(Cl)c(Cl)c3)nc2c1` [Cpd 65, 2-(3,4-dichloro-phenoxymethyl)-5-(2-methanesulfonyl-phenyl)-1H-benzoimidazole] in this work.
An IC50 of 0.081 µM and an inhibition at 0.2 µM of 85% were found for `CS(=O)(=O)c1ccccc1-c1ccc2[nH]c(COc3ccc(Cl)cc3F)nc2c1` [Cpd 66, 2-(4-chloro-2-fluoro-phenoxymethyl)-5-(2-methanesulfonyl-phenyl)-1H-benzoimidazole] in this work.
An inhibition at 0.2 µM of 70% was found for `CS(=O)(=O)c1ccccc1-c1ccc2[nH]c(COc3ccc(F)c(Cl)c3)nc2c1` [Cpd 67, 2-(3-chloro-4-fluoro-phenoxymethyl)-5-(2-methanesulfonyl-phenyl)-1H-benzoimidazole] in this work.
An inhibition at 0.2 µM of 59% was found for `CS(=O)(=O)c1ccccc1-c1ccc2[nH]c(COc3cc(F)c(F)c(F)c3)nc2c1` [Cpd 68, 5-(2-methanesulfonyl-phenyl)-2-(3,4,5-trifluoro-phenoxymethyl)-1H-benzoimidazole] in this work.
An inhibition at 0.2 µM of 21% was found for `CS(=O)(=O)c1ccccc1-c1ccc2[nH]c(COc3cc(F)c(F)cc3F)nc2c1` [Cpd 69, 5-(2-methanesulfonyl-phenyl)-2-(2,4,5-trifluoro-phenoxymethyl)-1H-benzoimidazole] in this work.
An inhibition at 0.2 µM of 33% was found for `CS(=O)(=O)c1ccccc1-c1ccc2[nH]c(COc3ccc(F)c(F)c3F)nc2c1` [Cpd 70, 5-(2-methanesulfonyl-phenyl)-2-(2,3,4-trifluoro-phenoxymethyl)-1H-benzoimidazole] in this work.
An inhibition at 0.2 µM of 43% was found for `CS(=O)(=O)c1ccccc1-c1ccc2[nH]c(COc3cccc(C(F)(F)F)c3F)nc2c1` [Cpd 71, 2-(2-fluoro-3-trifluoromethyl-phenoxymethyl)-5-(2-methanesulfonyl-phenyl)-1H-benzoimidazole] in this work.
An IC50 of 0.03 µM and an inhibition at 0.2 µM of 96% were found for `CS(=O)(=O)c1ccccc1-c1ccc2[nH]c(COc3ccc(F)c(C(F)(F)F)c3)nc2c1` [Cpd 72, 2-(4-fluoro-3-trifluoromethyl-phenoxymethyl)-5-(2-methanesulfonyl-phenyl)-1H-benzoimidazole] in this work.
An inhibition at 0.2 µM of 33% was found for `CS(=O)(=O)c1ccccc1-c1ccc2[nH]c(COc3cc(C(F)(F)F)cc(C(F)(F)F)c3)nc2c1` [Cpd 73, 2-(3,5-bis-trifluoromethyl-phenoxymethyl)-5-(2-methanesulfonyl-phenyl)-1H-benzoimidazole] in this work.
An inhibition at 0.2 µM of 60% was found for `CS(=O)(=O)c1ccccc1-c1ccc2[nH]c(COc3ccccc3C(F)(F)F)nc2c1` [Cpd 74, 5-(2-methanesulfonyl-phenyl)-2-(2-trifluoromethyl-phenoxymethyl)-1H-benzoimidazole] in this work.
An IC50 of 0.068 µM and an inhibition at 0.2 µM of 93% were found for `CS(=O)(=O)c1ccccc1-c1ccc2[nH]c(COc3cccc(C(F)(F)F)c3)nc2c1` [Cpd 75, 5-(2-methanesulfonyl-phenyl)-2-(3-trifluoromethyl-phenoxymethyl)-1H-benzoimidazole] in this work.
